One may read the Km as the substrate concentration at which the rate is half of its maximum.

This note sets out measurements from publication PMC4265155, “A highly charged region in the middle domain of plant endoplasmic reticulum (ER)-localized heat-shock protein 90 is required for resistance to tunicamycin or high calcium-induced ER stresses” (Journal of Experimental Botany, 2014).

The structures appear in SMILES notation.

The test deals with T1, CfGRP94 (canine GRP94 73–754Δ41) (Canis lupus, UniProt P41148, DEL287-327, form not given).
T1 construct: gene HSP90B1
As to conditions: geldanamycin-sensitive activity; 25 mM HEPES pH 7.5, 5 mM MgCl2, 400 mM KCl, 0.03% Tween 20, 10% glycerol. The source says: NADH-coupled ATPase assay (pyruvate kinase / lactate dehydrogenase) on CfGRP94 (canine GRP94 73–754Δ41)

T1 sequence (P41148 73-286, stated change not applied): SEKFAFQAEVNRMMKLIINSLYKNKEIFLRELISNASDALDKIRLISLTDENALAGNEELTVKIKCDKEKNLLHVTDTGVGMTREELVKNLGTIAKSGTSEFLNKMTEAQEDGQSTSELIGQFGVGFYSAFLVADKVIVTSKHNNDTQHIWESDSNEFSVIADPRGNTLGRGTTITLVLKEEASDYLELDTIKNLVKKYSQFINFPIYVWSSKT
T1 sequence (P41148 328-754, stated change not applied): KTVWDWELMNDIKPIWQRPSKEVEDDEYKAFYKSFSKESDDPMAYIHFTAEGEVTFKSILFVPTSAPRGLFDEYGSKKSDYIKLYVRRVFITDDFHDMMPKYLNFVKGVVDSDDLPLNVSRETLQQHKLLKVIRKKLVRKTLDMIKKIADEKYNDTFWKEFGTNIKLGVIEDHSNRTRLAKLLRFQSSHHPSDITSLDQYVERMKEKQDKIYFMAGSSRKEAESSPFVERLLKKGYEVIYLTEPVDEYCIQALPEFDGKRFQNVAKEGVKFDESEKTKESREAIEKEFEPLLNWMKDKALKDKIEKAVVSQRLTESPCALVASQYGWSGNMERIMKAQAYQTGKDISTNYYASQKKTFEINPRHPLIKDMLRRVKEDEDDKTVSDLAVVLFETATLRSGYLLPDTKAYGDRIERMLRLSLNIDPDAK

For `Nc1ncnc2c1ncn2[C@@H]1O[C@H](COP(=O)(O)OP(=O)(O)OP(=O)(O)O)[C@@H](O)[C@H]1O` [ATP], the Km worked out at 65 ± 13 µM.
